From ChEMBL document CHEMBL5604062, “ASAP - ZIKV NS2B-NS3 protease fluorescence dose response” (2024)
Where “and” joins values, the source holds several entries; their conditions need not be identical. Equal values may be shown once.

Target: Nonstructural protein 3 (Zika virus, UniProt A0A024AXB9)
Experiment: Functional biochemical assay to identify treatments for viral infectious disease that targets Zika NS2B-NS3 protease. Utilizing a direct enzyme activity measurement method, reading the fluorescence intensity is used to characterize the relative potency of inhibitors as IC50.
Set-up: species or system PRVABC59

Sequence of Nonstructural protein 3 (A0A024AXB9 whole entry): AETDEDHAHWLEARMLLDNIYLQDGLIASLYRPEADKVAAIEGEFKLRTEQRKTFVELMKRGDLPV

## COc1ncccc1-c1cccc([C@H](NC(=O)OCc2ccccc2)C(=O)Nc2cccc(CN)c2)c1
  IC50: 67.4 µM

## CC(C)c1ccc(Cl)cc1C(=O)Nc1ccc2c(c1)CNC2
  IC50: 2.34 µM

## CNC(=O)c1cc(Cl)ccc1NS(=O)(=O)c1ccc(Oc2ccccc2Cl)cc1
  IC50: > 99.5 µM

## CCn1c(=O)c(N2CC[C@H](N3CCN(C)CC3)C2)nc2ccccc21
  IC50: > 99.5 µM

## Cc1ncc(-c2cc(F)cc(C(=O)Nc3ccc4c(c3)CNC4)c2)s1
  IC50: 0.071 µM and 0.052 µM

## O=C(O)[C@@H]1CC2(CC[C@@H]1NS(=O)(=O)c1ccc(Oc3ccccc3Cl)cc1)CC2
  IC50: > 99.5 µM

## Cn1nc(NC(=O)c2cc(Cl)cc(NC(=O)OCc3ccccc3)c2)c2c1CNC2
  IC50: > 99.5 µM

## OCCCCCc1nc(-c2ccc(Br)o2)no1
  IC50: > 99.5 µM

## CC1(NC(=O)c2cccc3c2CC(=O)N3)CCOCC1
  IC50: > 25 µM

## O=C(Nc1ccc(-n2nn[nH]c2=O)cc1)c1cc(Cl)cc(C2CC2)c1
  IC50: > 99.5 µM

## O=C(O)c1cc(OC2CCOCC2)c(F)cc1NS(=O)(=O)c1ccc(Oc2ccccc2Cl)cc1
  IC50: 37 µM

## CNC(=O)C[C@H](Nc1cccc(F)n1)c1cc(Cl)cc(Br)c1
  IC50: > 99.5 µM

## O=C(N[C@@H](C(=O)NCC1CCNCC1)c1ccc(OCc2ccccc2)cc1)OCc1ccccc1
  IC50: > 99.5 µM

## CCC1CCN(Cc2c[nH]c3ccccc23)CC1
  IC50: > 99.5 µM

## CCOC(=O)[C@H](Nc1ccc2c(c1)CNC2)c1cc(Cl)cc(C2CC2)c1
  IC50: 0.064 µM and 0.087 µM

## c1cc(C2CCN(Cc3c[nH]c4ccccc34)CC2)c2ccncc2c1
  IC50: 24.6 µM

## O=C(Cn1ccnc(N2CC[C@H](CO)C2)c1=O)NCc1cccs1
  IC50: > 99.5 µM

## Cc1c(C(=O)NCc2ccnc(OC3CCOCC3)c2)cc(C2CC2)n1C
  IC50: > 25 µM

## C[C@H]1CCC[C@H](C(=O)Nc2cccc(CN)c2)O1
  IC50: > 99.5 µM

## Cn1ccc(-c2n[nH]cc2CN2CCC(c3nc4ccccc4s3)CC2)n1
  IC50: > 99.5 µM

## CNCc1ccc(NC(=O)c2cc(Cl)cc3[nH]ncc23)cc1
  IC50: 4.34 µM

## COCc1cc(Cl)cc(C(=O)Nc2ccc3c(c2)CNC3)c1
  IC50: 0.785 µM

## FC(F)(F)c1nc(CNCc2cocn2)cs1
  IC50: > 99.5 µM

## NC1(c2cccc(NS(=O)(=O)c3ccc(Oc4ccccc4Cl)cc3)c2)CCC1
  IC50: > 99.5 µM

## O=C(Nc1ccc2c(c1)CNC2)c1n[nH]c2ncc(Br)cc12
  IC50: 46.1 µM

## CCN(CC)C[C@H]1CCCN(C(=O)Nc2ccc3c(c2)CNC3)C1
  IC50: > 25 µM

## Cc1onc(C(=O)Nc2cccc(CN)c2)c1COc1cccc(F)c1
  IC50: > 99.5 µM

## Cn1ncc2c(C(=O)Nc3ccc4c(c3)CNC4)cc(C3CC3)nc21
  IC50: 5.07 µM

## NCc1cc(CCc2cc(Cl)cc(NC(=O)OCc3ccccc3)c2)cc(C(=O)O)c1
  IC50: > 99.5 µM

## Clc1ccc2ncn(Cc3ccc4c(c3)CNC4)c2c1
  IC50: > 99.5 µM

## O=C(N[C@H](C(=O)NCc1ccccc1CO)c1ccc(OCc2ccccc2)cc1)OCc1ccccc1
  IC50: > 99.5 µM

## NCc1cccc(NC(=O)[C@H](NC(=O)OCc2ccccc2)c2ccc(OCc3ccccc3)cc2)c1
  IC50: 6.93 µM

## CC(C)(C)c1cc(CN2CCC(c3cscn3)CC2)n[nH]1
  IC50: > 99.5 µM

## NCc1cccc(NC(=O)c2cc(NC(=O)OCc3ccccc3)ccc2C(F)(F)F)c1
  IC50: > 99.5 µM

## O=C(Nc1cc(Cl)cc(C(=O)Nc2ccc3c(c2)COC3)c1)OCc1ccccc1
  IC50: > 99.5 µM

## COc1ccc(-c2cccc([C@H](NC(=O)OCc3ccccc3)C(=O)Nc3cccc(CN)c3)c2)c(C#N)c1
  IC50: 11.2 µM

## NCc1nccc(NC(=O)c2cc(Cl)cc(NC(=O)OCc3ccccc3)c2)n1
  IC50: > 99.5 µM

## O=C(Nc1ccc2c(c1)C(=O)OC2)c1cc(CC2CCNCC2)ccc1F
  IC50: > 25 µM

## COC(=O)N1CCc2cc(NC(=O)c3cc(C4CC4)n(C)c3C)ccc21
  IC50: > 25 µM

## N#CCCNC(=O)[C@H](Nc1ccc2c(c1)CNC2)c1cc(Cl)cc(C2CC2)c1
  IC50: 0.052 µM and 0.037 µM

## COCCN1C(=O)CCc2cc(NC(=O)c3cc(C4CC4)n(C)c3C)ccc21
  IC50: > 25 µM

## N[C@H]1CCN(c2cccc(CNC(=O)c3ccc4[nH]c(=O)[nH]c4c3F)n2)C1
  IC50: > 99.5 µM

## O=Cc1ccc(N2CCC(C(=O)NCCN3CCc4ccccc43)CC2)cc1
  IC50: 25 µM

## O=C(Nc1ccc2c(c1)CNC2)N1CC[C@H](Oc2ccc(C3CC3)cn2)C1
  IC50: > 25 µM

## O=C(Nc1ccc2c(c1)CNC2)c1ncnc2ccsc12
  IC50: > 99.5 µM

## O=C(Nc1ccc2c(c1)CNC2)c1ccc(OC(F)(F)F)cc1
  IC50: > 25 µM

## C#CCn1ccnc(N2CC[C@H](CO)C2)c1=O
  IC50: > 99.5 µM

## O=S(=O)(c1ccc(Oc2ccccc2Cl)cc1)n1ccc2cc(Cl)ccc21
  IC50: > 99.5 µM

## COc1cc(NC(=O)OCc2ccccc2)cc(C(=O)Nc2cccc(CN)c2)c1OC
  IC50: > 99.5 µM

## CCc1cc(C)nc(C2CCN(Cc3c[nH]c4ccccc34)CC2)n1
  IC50: 59.4 µM

## CCNC(=O)Nc1cc(Cl)cc(C(=O)Nc2cc(CCCN)ccc2F)c1
  IC50: 6.17 µM

## NS(=O)(=O)c1cccc(-c2ccc(S(=O)(=O)Nc3ccc(Cl)cc3C(=O)O)cc2)c1
  IC50: > 99.5 µM

## O=C(Nc1ccc2c(c1)CNC2)c1cc(C(F)(F)F)cc2[nH]ccc12
  IC50: 1.07 µM

## O=C(O)[C@@H]1CCCC[C@H]1NS(=O)(=O)c1ccc(Oc2ccccc2Cl)cc1
  IC50: > 99.5 µM

## COCCN(C)C(=O)Cn1ccnc(N2CC[C@@H](CO)C2)c1=O
  IC50: > 99.5 µM

## C[C@H]1NCCc2c(-c3ccc4[nH]c(C(=O)O)cc4c3)cc(F)cc21
  IC50: > 99.5 µM

## O[C@@H]1CN(Cc2c[nH]c3ccccc23)CC[C@@H]1c1ccccc1
  IC50: 47.4 µM

## COc1cccc(-c2nc3c(C(=O)Nc4ccc5c(c4)CNC5)cc(F)cc3[nH]2)c1
  IC50: 0.046 µM and 0.042 µM and 0.025 µM

## [O-][S@@+](Cc1nc(-c2cccs2)no1)c1cccs1
  IC50: > 99.5 µM

## NCc1cc(Cl)cc(C(=O)Nc2cccc(C3CCNCC3)c2)c1
  IC50: 25.8 µM

## CCOC(=O)[C@H]1[C@H](c2cccc(CN)c2)[C@H]1c1cc(Cl)cc(NC(=O)OCc2ccccc2)c1
  IC50: 17.2 µM

## Cc1cc(-c2cccc([C@H](NC(=O)OCc3ccccc3)C(=O)Nc3cccc(CN)c3)c2)[nH]n1
  IC50: > 99.5 µM

## O=C(O)c1cc(Cl)ccc1NS(=O)(=O)c1ccc(OCc2cccnn2)cc1
  IC50: > 99.5 µM

## COC(=O)c1cc(Cl)cc(S(=O)(=O)Nc2cccc(-c3nnn[nH]3)c2)c1F
  IC50: > 99.5 µM

## O=C(c1cc(Cl)ccc1NS(=O)(=O)c1ccc(Oc2ccccc2Cl)cc1)N1CC[C@H](CO)C1
  IC50: > 99.5 µM

## CC(C)(C)OC(=O)NCc1cc(NC(=O)c2cc(Cl)cc(NC(=O)OCc3ccccc3)c2)cc(-c2nn[nH]n2)c1
  IC50: 11.5 µM

## CC(C)(C)c1cc(N2CCN(c3cccc4[nH]ncc34)CC2)nc(C(=O)O)n1
  IC50: > 99.5 µM

## COc1cc(Br)cc2c1NC(=O)[C@]2(Nc1ccc2c(c1)CNC2)C(N)=O
  IC50: 19.9 µM

## COc1ccccc1Cn1cnc2cc(C(=O)Nc3ccc4c(c3)CNC4)ccc21
  IC50: > 25 µM

## O=C(Nc1ccc2c(c1)CNC2)N1CCC[C@@H]1COCc1ccccc1
  IC50: > 25 µM

## O=C(Nc1cc(Cl)cc(C(=O)N2CCC(c3nn[nH]n3)CC2)c1)OCc1ccccc1
  IC50: > 99.5 µM

## N[C@H]1CC[C@H](NC(=O)[C@@H](NC(=O)OCc2ccccc2)c2ccc(OCc3ccccc3)cc2)CC1
  IC50: > 99.5 µM

## Cc1c(C(=O)Nc2cc(C(=O)N3CCNC(=O)C3)ccn2)cc(C2CC2)n1C
  IC50: > 25 µM

## O=C(O)c1cc(Cl)c(Cl)cc1NS(=O)(=O)c1ccc(Oc2ccccc2Cl)cc1
  IC50: 9.06 µM

## Cc1ccc(F)c2c1CCN(Cc1ccn(C3CNC3)c1)C2
  IC50: > 99.5 µM

## O=C1CCc2cc(NC(=O)c3cc(Cl)cc4[nH]ncc34)ccc2N1
  IC50: > 99.5 µM

## NCCc1ccc(NC(=O)c2cc(Cl)cc(NC(=O)OCc3ccccc3)c2)cc1
  IC50: 10.7 µM

## COc1ccc(S(=O)(=O)n2nc(OC(=O)c3ccccc3)cc2N)cc1
  IC50: 1.16 µM

## CCn1cc(Cl)nc(N2CC[C@@H](CO)C2)c1=O
  IC50: > 99.5 µM

## CNCCS(=O)(=O)N1CCC([C@H](NC(=O)OCc2ccccc2)C(=O)Nc2cccc(CN)c2)CC1
  IC50: > 99.5 µM

## C=CC[C@H]1NCc2cc(NCc3cc(Cl)cc4[nH]ncc34)ccc21
  IC50: > 25 µM

## O=C(O)COc1cc2c(cc1Cc1c[nH]c3ccc(Cl)cc13)OCO2
  IC50: > 99.5 µM

## O=C(O)c1cc(Cl)ccc1NS(=O)(=O)c1ccc(OCc2ncccn2)cc1
  IC50: > 99.5 µM

## NCc1cccc(NC(=O)c2cc(C3CC3)nc3c(Cl)cnn23)c1
  IC50: > 99.5 µM

## Cc1cc(-c2ccc([C@@H](NC(=O)OCc3ccccc3)C(=O)Nc3cccc(CN)c3)cc2)cs1
  IC50: 3.94 µM

## O=C1COc2c(cccc2C(=O)Nc2ccc3c(c2)CNC3)N1
  IC50: 1.22 µM

## CCn1ccnc(N2CC[C@@H](CC#N)C2)c1=O
  IC50: > 99.5 µM

## COc1cc(Br)ccc1[C@@H](NC(=O)OCc1ccccc1)C(=O)Nc1cccc(CN)c1
  IC50: 68.9 µM

## O=C(Nc1cc2c(cc1Br)CNC2)c1cc(F)cc2[nH]ncc12
  IC50: 0.048 µM and 0.028 µM

## N[C@H]1CC[C@H](NC(=O)[C@@H](NC(=O)OCc2ccccc2)c2ccc(OCc3ccccc3)cc2)C1
  IC50: > 99.5 µM

## O=C(O)Cc1cc2c(c(Cc3c[nH]c4ccc(Cl)cc34)c1)OCC2
  IC50: > 99.5 µM

## CS(=O)(=O)c1ccc(-c2cccc([C@H](NC(=O)OCc3ccccc3)C(=O)Nc3cccc(CN)c3)c2)cc1
  IC50: 70.5 µM

## NCc1ccc(COc2ccc(-c3ccc(N)nc3)c3c2OB(O)CC3)cc1
  IC50: > 99.5 µM

## Cc1c(C(=O)O)sc2ncc(Cc3c[nH]c4ccc(Cl)cc34)cc12
  IC50: 97.2 µM

## CC(C)(CO)CN1CC[C@H](c2c[nH]c3ccccc23)C1
  IC50: > 99.5 µM

## O=C(Nc1ccc2c(c1)CNC2)c1ncc(Cc2ccccc2)s1
  IC50: > 25 µM

## N=C(N)NCCc1ccc(NC(=O)Cc2ccccc2)cc1
  IC50: > 198 µM

## CCn1c(=O)c(N2CC[C@H](c3ccccc3)C2)nc2ccccc21
  IC50: > 99.5 µM

## CC(C)(C)OC(=O)N1Cc2cc(NC(=O)c3cc(Cl)cc4c3cnn4[C@@H]3CCCCO3)ccc2[C@H]1CO
  IC50: > 25 µM

## O=C(Nc1cc(-c2cccnc2)ccn1)c1cc2n(n1)CC1(CC1)C2
  IC50: > 25 µM

## CCc1cccc(-c2nc3c(C(=O)Nc4ccc5c(c4)CNC5)cc(F)cc3[nH]2)c1
  IC50: 53 nM (2×) and 32 nM

## Cc1ncc(-c2cc(F)cc(C(=O)Nc3ccc4c(c3)CNC4)c2)o1
  IC50: 0.152 µM

## Cn1cc2cc(C#N)cc(-c3ccc4[nH]c(C(=O)O)cc4c3)c2n1
  IC50: > 25 µM

## NCc1cccc(NC(=O)[C@H]2[C@H]3CCC[C@H]3[C@@H]2NC(=O)OCc2ccccc2)c1
  IC50: > 99.5 µM

## Cc1n[nH]cc1CC(=O)N1CCCC12CCN(C(=O)c1ccnc(CO)c1)CC2
  IC50: > 99.5 µM
